Key:
CoaA [1] = target: T1, CoaA (Mycobacterium tuberculosis, UniProt P9WPA7)
CoaA [2] = target: T1, CoaA; test: ADP-Glo luminescent kinase assay; format: biochemical; conditions: 5 mM ATP, 50 mM HEPES, 25 mM KCl, 20 mM MgCl2, 30 min

T1 sequence (P9WPA7 whole entry, looked up): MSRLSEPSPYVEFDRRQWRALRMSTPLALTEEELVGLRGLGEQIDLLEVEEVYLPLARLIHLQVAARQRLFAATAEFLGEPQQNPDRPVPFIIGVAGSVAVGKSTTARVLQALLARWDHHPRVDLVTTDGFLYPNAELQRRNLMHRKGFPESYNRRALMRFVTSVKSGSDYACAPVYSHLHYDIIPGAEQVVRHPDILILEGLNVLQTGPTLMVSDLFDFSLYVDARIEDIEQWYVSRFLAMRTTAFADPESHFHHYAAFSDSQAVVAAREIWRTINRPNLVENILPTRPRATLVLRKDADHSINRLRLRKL

| Structure (SMILES) | ADP-Glo luminescent kinase assay (CoaA [1]) | Michaelis-Menten curve, constant not given (CoaA [2]) |
| --- | --- | --- |
| Nc1ncnc2c1ncn2[C@@H]1O[C@H](COP(=O)(O)OP(=O)(O)OP(=O)(O)O)[C@@H](O)[C@H]1O [ATP] | CoaA showed robust ATPase activity | – |
| CC(C)(CO)[C@@H](O)C(=O)NCCC(=O)O [pantothenate] | – | CoaA showed robust ATPase activity |

Reference: article PMC11626117 (Proceedings of the National Academy of Sciences of the …, 2024)
